Assay results: the NIST ThermoML archive (doi:10.1016/j.fluid.2006.09.021)

Details: Liquid, Closed cell (Static) method

S [hydrogen sulfide]
Details | vapor or sublimation pressure [kPa]
223.19 K | 167.4
228.2 K | 209.1
233.11 K | 257.4
238.04 K | 313.9
243.04 K | 380.1
248.01 K | 456.7
252.97 K | 544.2
258.01 K | 644.5
263 K | 757.7
268.02 K | 885.7
273.17 K | 1032.3
278.24 K | 1194.1
283.26 K | 1371.1
288.31 K | 1566.6
293.1 K | 1767.9
293.3 K | 1779.5
298.41 K | 2022.2
303.08 K | 2259.6
313.11 K | 2847.2
323.18 K | 3540.4
333.17 K | 4339.5
343.16 K | 5261.2
353.17 K | 6319.2
363.16 K | 7533
373.15 K | 8932.1
